# Values of other authors in patent US20180256601A1, “URSODEOXYCHOLIC ACID AND BRAIN DISORDERS” (priority 2015, published 2018).
# “Also recorded” adds a separate entry of the source.
# How the values were obtained:
# cell model of ALS = cell model of ALS (Vaz et al, 2015)
# PBC patients = details: sixty PBC patients
# [1] = in vivo
# [2] = post approval use
# [3] = in divided doses (Parry et al, 2010)
# [4] = oral; 450 mg UDCA, or complex containing 426 mg UDCA
# [5] = not given; remark: listed apart in the source
# [6] = worldwide postmarketing and clinical experience
# prion disease = details: Cortez et al, 2015
# ALS patients = details: 1 g twice daily; 17 ALS patients
# cellular model of HD = details: coincubation with 3-NP
structure (smiles),measurement,setting,value
"C[C@H](CCC(=O)NCC(=O)O)[C@H]1CC[C@H]2[C@@H]3[C@@H](O)C[C@@H]4C[C@H](O)CC[C@]4(C)[C@H]3CC[C@]12C [GUDCA, glycoursodeoxycholic acid]","mitochondrial dysfunction, caspase-9 activation, matrix metalloproteinase activation, nitrogen oxide (NO) generation",cell model of ALS,decrease
"C[C@H](CCC(=O)O)[C@H]1CC[C@H]2[C@@H]3[C@@H](O)C[C@@H]4C[C@H](O)CC[C@]4(C)[C@H]3CC[C@]12C [UDCA, Ursodeoxycholic Acid]",correlation between serum concentrations 1 hour after dosing and cerebrospinal fluid concentrations 2 hours after dosing,"18 ALS patients (Parry et al, 2010)",strong statistically significant correlation
same,time of serum level peak,after oral administration,30 to 50 min
same,blood-brain barrier crossing,in vivo,crosses the blood-brain barrier in a dose-dependent manner
same,abdominal pain and asthenia,PBC patients,1 patient
same,anorexia,PBC patients,1 patient
same,dyspepsia,PBC patients,2 patients
same,esophagitis,PBC patients,1 patient
same,nausea,PBC patients,3 patients
same,patients who reported adverse reactions,"PBC patients; seven patients, nine adverse reactions",11.6%
same,percentage of UDCA in the bile pool after administration of exogenous UDCA,[1],55 to 60%
same,Adverse Reactions: Musculoskeletal and connective tissue disorders,[2],Myalgia
same,Adverse Reactions: Nervous system disorders,[2],"dizziness, headache"
same,"Adverse Reactions: Respiratory, thoracic and mediastinal disorders",[2],Cough
same,Adverse Reactions: Gastrointestinal disorders,[2]; listed as ursodiol,"abdominal discomfort,; also recorded: abdominal pain,; also recorded: constipation, diarrhea,; also recorded: dyspepsia, nausea,; also recorded: vomiting"
same,Adverse Reactions: General disorders and administration site conditions,[2]; listed as ursodiol,"malaise, peripheral; also recorded: edema, pyrexia"
same,Adverse Reactions: Immune System Disorders,[2]; listed as ursodiol,"Drug hypersensitivity; also recorded: edema, urticaria,; also recorded: laryngeal edema"
same,Adverse Reactions: Skin and subcutaneous tissue disorder,[2]; listed as ursodiol,"alopecia, pruritus, and rash"
same,dose well tolerated without significant neurotoxic effects,[3],up to 50 mg/kg/day
same,Cmax,[4],6100 ng/mL
same,t1/2(abs),[4],0.9 h
same,tmax,[4],1.38 h
same,elimination half-life,[5]; adults,72 to 140 h
same,"bile UDCA levels following discontinuation of therapy, as share of average steady state concentrations",[5]; in vivo,5 to 10%
same,time to steady state concentrations,"[5]; on average, from starting therapy",≤ 3 weeks
same,fraction of oral dose excreted via the urine,[5]; oral,1%
same,fraction of exogenous UDCA absorbed,"[5]; oral delivery, passive diffusion by the proximal jejunum and ileum",~90%
same,"frequency of common adverse reactions: abdominal discomfort, abdominal pain, alopecia, diarrhea, nausea, pruritus, rash",[6],≥ 1%
"C[C@H](CCC(=O)NCCS(=O)(=O)O)[C@H]1CC[C@H]2[C@@H]3[C@@H](O)C[C@@H]4C[C@H](O)CC[C@]4(C)[C@H]3CC[C@]12C [TUDCA, tauroursodeoxycholic acid]",therapeutic effects in prion disease,prion disease,variety of therapeutic effects
same,Amyotrophic Lateral Sclerosis Functional Rating Scale Revised,ALS patients,significant improvements
same,mitochondrial cytochrome c release and mitochondrial membrane alterations,cellular model of HD,prevented
same,reduction in apoptosis,cellular model of HD,~80%
